Results from publication PMC9005971, “Discovery of 2-(4-Acrylamidophenyl)-Quinoline-4-Carboxylic Acid Derivatives as Potent SIRT3 Inhibitors” (Frontiers in Chemistry, 2022).

Key:
[1] = system: THP-1, MOLM-13, SEM and MV4-11 cells; assay: Cell apoptosis analysis, MLLr leukemic cells; assay type: cell-based; conditions: 72 h, flow cytometry
Procedure: THP-1, MOLM-13, SEM and MV4-11 cells were treated with P6 (0.45–4 µM) or Ara-C (0.1–2.0 µM) for 72 h, collected and resuspended in 1× binding buffer. Cells were incubated with FITC Annexin V and PI double labeling for 30 min in the dark at room temperature and measured by flow cytometry.

[2] = system: THP-1, MOLM-13, SEM and MV4-11 cells; assay: Cell morphology / differentiation (Wright-Giemsa staining); assay type: cell-based; conditions: 72 h
Procedure: THP-1, MOLM-13, SEM and MV4-11 cells were incubated with P6 or Ara-C for 72 h and then collected. Slides were made by cytospin and subsequently air dried. The cells were stained with Wright-Giemsa and observed for morphological features using a light microscope.

[3] = system: THP-1, MOLM-13, SEM and MV4-11 cells; assay: Cell cycle analysis, MLLr leukemic cells; assay type: cell-based; conditions: 0.9–2.0 µM
Procedure: THP-1, MOLM-13, SEM and MV4-11 cells were incubated with 1.0 (THP-1, MOLM-13 cells) and 2.0 (SEM and MV4-11 cells) µM of P6 for 72 h. After treatment, cells were collected and fixed with 70% pre-cold ethanol in PBS and stored at −20°C for at least 24 h. Then the cells were stained with […] RNase A for 30 min in the dark at room temperature. Finally, flow cytometry was used to detect the percentage of cells in the sub-G1, G0/G1, S, and G2/M phases with a Beckman Coulter DxFLEX flow cytometer (Florida, Miami, USA). The data was analyzed and fitted by ModFit software.

[4] = system: MOLM-13 cells; assay: In vitro antiproliferative CCK-8 assay, MOLM-13; assay type: cell-based; conditions: Homo sapiens, 72 h, read-out: IC50 growth inhibition MOLM-13
Procedure: (§1) The proliferation of THP-1, MOLM-13, SEM and MV4-11 cells was tested by CCK-8 assay. Briefly, cells were seeded in 96-well plate with about 5 × 10^3 cells in each well. The cells were treated with P6 or Ara-C (0–10 µM) after 24 h of incubation. CCK-8 reagent ([…]) was added to each well after 72 h of incubation, and cells were incubated at 37°C for 4 h. The light absorbance at 450 nm was measured by using an Opsys microplate reader (Dynex Technologirs, Chantilly, VA, United States). Results are illustrated as percent of cell viability normalized to DMSO-treated control cells.

[5] = molecular target: T1, SIRT3 (Homo sapiens, UniProt Q9NTG7); assay: SIRT3 enzyme inhibitory assay (fluorescence); assay type: biochemical; conditions: for activity at 0.01 µM / activity at 0.033 µM / activity at 0.1 µM / activity at 0.333 µM / activity at 1 µM / activity at 3.3 µM / activity at 10 µM / activity at 33 µM / activity at 100 µM: SIRT3 enzyme activity; for activity at 0.01 µM: 10 nM; for activity at 0.033 µM: 33 nM; for activity at 0.1 µM: 100 nM; for activity at 0.333 µM: 333 nM
T1 sequence (Q9NTG7 1-399): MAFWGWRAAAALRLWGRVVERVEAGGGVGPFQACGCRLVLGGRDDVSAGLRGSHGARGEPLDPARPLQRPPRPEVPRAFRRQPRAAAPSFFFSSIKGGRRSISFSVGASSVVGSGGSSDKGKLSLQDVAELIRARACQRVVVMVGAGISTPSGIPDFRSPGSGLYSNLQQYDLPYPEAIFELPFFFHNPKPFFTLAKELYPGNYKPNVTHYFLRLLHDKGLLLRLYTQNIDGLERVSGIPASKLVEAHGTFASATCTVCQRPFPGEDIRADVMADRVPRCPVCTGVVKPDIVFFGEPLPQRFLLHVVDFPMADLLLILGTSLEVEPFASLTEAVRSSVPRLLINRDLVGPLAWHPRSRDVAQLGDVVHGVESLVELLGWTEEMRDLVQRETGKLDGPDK
Procedure: (§2) All of the enzymatic reactions were conducted at 37°C for 30 min. […] The compounds were diluted in 10% DMSO and 5 ul of the dilution was added to each reaction mixture (50 ul). The assay was performed by quantitating the amount of fluorescent product generated from the enzyme reaction. Fluorescence intensity is then analyzed at excitation wavelength of 350–360 nm and emission wavelength of 450–460 nm on a SpectraMax M5 microtiter plate reader. The IC50 values were calculated using Prism GraphPad software.

[6] = system: MV4-11 cells; assay: In vitro antiproliferative CCK-8 assay, MV4-11; assay type: cell-based; conditions: Homo sapiens, 72 h, read-out: IC50 growth inhibition MV4-11
Procedure: as §1

[7] = molecular target: T2, SIRT2 (Homo sapiens, UniProt Q8IXJ6); assay: SIRT2 enzyme inhibitory assay (fluorescence); assay type: biochemical; conditions: for activity at 0.01 µM / activity at 0.033 µM / activity at 0.1 µM / activity at 0.333 µM / activity at 1 µM / activity at 3.3 µM / activity at 10 µM / activity at 33 µM / activity at 100 µM: SIRT2 enzyme activity; for activity at 0.01 µM: 10 nM; for activity at 0.033 µM: 33 nM; for activity at 0.1 µM: 100 nM; for activity at 0.333 µM: 333 nM
T2 sequence (Q8IXJ6 1-389): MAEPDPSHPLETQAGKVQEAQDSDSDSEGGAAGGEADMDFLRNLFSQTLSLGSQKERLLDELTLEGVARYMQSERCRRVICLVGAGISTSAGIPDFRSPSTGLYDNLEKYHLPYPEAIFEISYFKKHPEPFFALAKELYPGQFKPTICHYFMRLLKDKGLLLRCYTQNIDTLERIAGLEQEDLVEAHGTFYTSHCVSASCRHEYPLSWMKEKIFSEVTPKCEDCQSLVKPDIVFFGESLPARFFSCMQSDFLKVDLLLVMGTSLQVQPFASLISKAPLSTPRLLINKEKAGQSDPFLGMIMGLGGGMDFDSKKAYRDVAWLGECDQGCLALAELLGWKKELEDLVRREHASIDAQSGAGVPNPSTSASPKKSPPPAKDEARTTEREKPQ
Procedure: as §2

[8] = system: SEM cells; assay: In vitro antiproliferative CCK-8 assay, SEM; assay type: cell-based; conditions: 72 h, read-out: IC50 growth inhibition SEM
Procedure: as §1

- IC50 [4]: 980 nM
- activity at 0.01 µM ([5]; Repeat1): 101%
- activity at 0.01 µM ([5]; Repeat2): 99%
- activity at 0.033 µM ([5]; Repeat1): 98%
- activity at 0.033 µM ([5]; Repeat2): 97%
- activity at 0.1 µM ([5]; Repeat1): 104%
- activity at 0.1 µM ([5]; Repeat2): 95%
- activity at 0.333 µM ([5]; Repeat1): 95%
- activity at 0.333 µM ([5]; Repeat2): 88%
- activity at 1 µM ([5]; Repeat1): 76%
- activity at 1 µM ([5]; Repeat2): 74%
- activity at 3.3 µM ([5]; Repeat1): 61%
- activity at 3.3 µM ([5]; Repeat2): 59%
- activity at 10 µM ([5]; Repeat1): 38%
- activity at 10 µM ([5]; Repeat2): 38%
- activity at 33 µM ([5]; Repeat1): 33%
- activity at 33 µM ([5]; Repeat2): 31%
- activity at 100 µM ([5]; Repeat1): 24%
- activity at 100 µM ([5]; Repeat2): 21%
- inhibition at 10 µM ([5]; dose of 10 μM, mean of three experiments, read-out: SIRT3 percentage inhibitory rate): 65.2 ± 3.26%
- selectivity among SIRT1-3 ([5]; enzyme selectivity test, SIRT3 vs SIRT1 and SIRT2): can selectively inhibit SIRT3
- IC50 ([5]; mean of two experiments): 7200 ± 500 nM
- IC50 [6]: 1900 nM
- activity at 0.01 µM ([7]; Repeat1): 100%
- activity at 0.01 µM ([7]; Repeat2): 98%
- activity at 0.033 µM ([7]; Repeat1): 96%
- activity at 0.033 µM ([7]; Repeat2): 100%
- activity at 0.1 µM ([7]; Repeat1): 101%
- activity at 0.1 µM ([7]; Repeat2): 101%
- activity at 0.333 µM ([7]; Repeat1): 100%
- activity at 0.333 µM ([7]; Repeat2): 95%
- activity at 1 µM ([7]; Repeat1): 93%
- activity at 1 µM ([7]; Repeat2): 83%
- activity at 3.3 µM ([7]; Repeat1): 83%
- activity at 3.3 µM ([7]; Repeat2): 73%
- activity at 10 µM ([7]; Repeat1): 64%
- activity at 10 µM ([7]; Repeat2): 65%
- activity at 33 µM ([7]; Repeat1): 51%
- activity at 33 µM ([7]; Repeat2): 48%
- activity at 100 µM ([7]; Repeat1): 36%
- activity at 100 µM ([7]; Repeat2): 39%
- IC50 ([7]; mean of two experiments): 33500 ± 1600 nM
Structure (SMILES): C=CC(=O)Nc1ccc(-c2cc(C(=O)N3CCN(c4ccccc4F)CC3)c3ccccc3n2)cc1 [Compound P6, N-(4-{4-[4-(2-Fluoro-phenyl)-piperazine-1-carbonyl]-quinolin-2-yl}-phenyl)-acrylamide]
- induction of apoptosis [1]: no significant apoptosis
- cell differentiation / morphology [2]: induced the cell differentiation accompanied with morphological changes
- effect on cell cycle progression [3]: capable of causing MLLr leukemic cell cycle arrest at G0/G1 phase
- IC50 [8]: 1790 nM
